# Test results reported in patent US10653704B2, “Inhalable formulation” (Teva Branded Pharmaceutical Products R&D, Inc., priority 2014, dated 2020).
# Experiments:
# Type in all cases: physicochemical
# [1] = Particle size distribution by Malvern, conditioning studies untreated versus treated
# [2] = Scanning electron microscope images pre- and post-conditioning; conditions: post-conditioning versus pre-conditioning, Experiments 1 and 2
# Source text: FIGS. 1 and 2 show scanning electron microscope images of fluticasone propionate, pre-conditioning (the first image in each Figure) and post-conditioning (the second image in each Figure). FIGS. 1 and 2 are taken from Experiments 1 and 2 in Table 1 and show scanning electron microscopic images of fluticasone propionate, pre-conditioning (the first image in each Figure) and post-conditioning (the second image in each Figure).
# [3] = Amorphous content after conditioning in HFA134a
# Procedure: Heating is performed at a temperature of 30-50° C., more preferably at a temperature of 35-45° C., and most preferably at a temperature of 38-42° C. The heating step, in the presence of the propellant, is a conditioning step for the API, in order to reduce the amorphous content of the API, without affecting the PSD. Amorphous content may be determined by solution microcalorimetry. Fluticasone propionate was conditioned in a drug-addition vessel. A 5% concentration of fluticasone propionate in HFA134a was treated at 40° C. for 48-72 h with a gentle rocking motion. HFA134a was vented and the remaining material was assessed in regard to its amorphous content.
# [4] = Particle size distribution by Malvern, conditioning studies untreated versus treated; remark: listed apart in the source
# Procedure: Fluticasone propionate was conditioned in a drug-addition vessel. A 5% concentration of fluticasone propionate in HFA134a was treated at 40° C. for 48-72 h with a gentle rocking motion. HFA134a was vented and the remaining material was assessed in regard to its amorphous content.
# [5] = Experiment 1, 5% in HFA134a, 40° C. for 48-72 h (with agitation)
# [6] = Experiment 1, 5% in HFA134a, 40° C. for 72 h (with agitation)
# [7] = Experiment 1, Control (untreated)
# [8] = Experiment 2, 5% in HFA134a, 40° C. for 48-72 h (with agitation)
# [9] = Experiment 2, Control (untreated)
smiles,measurement,setting,value
CCC(=O)O[C@]1(C(=O)SCF)[C@H](C)C[C@H]2[C@@H]3C[C@H](F)C4=CC(=O)C=C[C@]4(C)[C@@]3(F)[C@@H](O)C[C@@]21C [fluticasone propionate],Particle size distribution by Malvern D50,[1]; [5],1.5 μm
same,Particle size distribution by Malvern D50,[1]; [6],1.4 μm
same,Particle size distribution by Malvern D10,[1]; [7],0.6 μm
same,Particle size distribution by Malvern D50,[1]; [7],1.5 μm
same,Particle size distribution by Malvern D90,[1]; [7],3.2 μm
same,Particle size distribution by Malvern D90,[1]; [8],4.7 μm
same,Particle size distribution by Malvern D10,[1]; [9],0.6 μm
same,Particle size distribution by Malvern D50,[1]; [9],1.7 μm
same,Particle size distribution by Malvern D90,[1]; [9],5.0 μm
same,Crystallinity by SEM images,[2],increased crystallinity
same,Amorphous content,[3]; [5],2.3%
same,Amorphous content,[3]; [6],1.1%
same,Amorphous content,[3]; [7],7.2%
same,Amorphous content,[3]; [8],1.1%
same,Amorphous content,[3]; [9],2.3%
same,Particle size distribution by Malvern D10,[4]; [5],0.6 μm
same,Particle size distribution by Malvern D90,[4]; [5],3.2 μm
same,Particle size distribution by Malvern D10,[4]; [6],0.6 μm
same,Particle size distribution by Malvern D90,[4]; [6],2.9 μm
same,Particle size distribution by Malvern D10,[4]; [8],0.7 μm
same,Particle size distribution by Malvern D50,[4]; [8],2.0 μm
